The values that follow come from patent publication US10993957B2 (NuCana plc, priority 2011, dated 2021).

Structures are written as SMILES. Like-named read-outs stand apart in the source and are kept apart here.

A short description of series [1]: Stability in buffer at pH 1 by 31P NMR. The format is physicochemical. The settings on record: 14 hours. On the procedure:
The stability of the prodrug CPF-373 towards hydrolysis at pH=1 was studied using in situ ^31P NMR (202 MHz). The ProTide CPF-373 (1) (2.6 mg) was dissolved in MeOD (0.1 mL) after which 0.5 mL buffer (pH=1) (prepared from equal parts of 0.2 M HCl and 0.2 M KCl) was added. Then the sample was transferred into an NMR tube, and a ^31P NMR experiment was performed at 37° C. recording the data every 12 minutes for 14 hours. Data were processed and analysed with the Bruker Topspin 2.1 program.
A chemical hydrolysis was evaluated under experimental conditions at pH 1 and pH 8 and monitored by ^31P NMR. During the assay (14 h) under acidic conditions (pH 1) only two peaks representing the two diastereoisomers were recorded.

The subject of series [2] is L1210/TK^−. As to the kind of experiment: Cytostatic assay, thymidine kinase-deficient L1210/TK^− cells. It counts as cell-based, murine. The settings on record: for IC50: Table 6, read-out: IC50 L1210/TK^−; for CC50: L1210, Table 1, read-out: CC50 L1210/TK^−.
The subject of series [3] is Cem/hEnt-1. As to the kind of experiment: Cytostatic assay, CEM cells containing the hEnt1 transporter. It counts as cell-based. An excerpt:
(§1) Data are mean (±SD) of at least two to four independent experiments. Table 8 identifies the phosphoramidate motif of compounds embodying the present invention, as discussed above with respect to Table 6, but with “Naph” standing for 1-naphthyl.

Series [4] deals with Cem/hEnt-0. Description: Cytostatic assay, CEM cells lacking the hEnt1 transporter. The format is cell-based. As to conditions: Table 8; read-out: IC50 Cem/hEnt-0.
Description: as §1

For series [5], the target named is Thymidine Phosphorylase purified from Escherichia coli (Escherichia coli, UniProt P07650). Description: Phosphorylase assay by in situ 19F NMR. The settings on record: potassium phosphate buffer 300 nM, pH 7.4; after 5 min, 14 h and 72 h.
Description: Two potassium phosphate buffers at pH=7.4, 200 nM solution and 300 nM solution respectively, were used as phosphate donor. Units of enzyme were defined as the amount of enzyme required to hydrolyse about 0.25 mg of inosine per min used as standard. Assays were conducted for 30 minutes.
Series [6] deals with Cem/TK^−. As to the kind of experiment: Cytostatic assay, thymidine kinase-deficient CEM/TK^− cells. The settings on record: for IC50: Table 6, read-out: IC50 Cem/TK^−; for CC50: Table 1, read-out: CC50 Cem/TK^−. The format is cell-based, human.
Series [7] relates to Cem/0. As to the kind of experiment: Cytostatic assay, CEM/0 cells. The format is cell-based, human. As to conditions: for IC50: Table 6, read-out: IC50 Cem/0; for CC50: Table 1, read-out: CC50 Cem/0. An excerpt: (§2) The cell lines employed were L1210/0 (a leukemia cell line), FM3A/0 (a breast cancer cell line), Cem/0 (an acute lymphoblastic leukemia cell line) and HeLa (a cervical cell line).

The subject of series [8] is L1210.Hyor. Description: Cytostatic assay, Mycoplasma hyorhinis-infected L1210 cells. In short, it runs like this: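 Suspension L1210/0 murine leukaemia cells infected with M. hyorhinis, seeded at 60,000 cells/well with test compound in DMEM/10% FBS and grown 48 h at 37 °C, 5% CO2. Cell number counted by Coulter counter; activity also expressed as % retained versus uninfected cells.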

Series [9] has as its system HeLa/TK^−. As to the kind of experiment: Cytostatic assay, HeLa/TK^− cells. The format is cell-based. As to conditions: for IC50: Table 6, read-out: IC50 HeLa/TK^−; for CC50: Table 1, read-out: CC50 HeLa/TK^−.
Description: as §2

Series [10] has as its system L1210/0. As to the kind of experiment: Cytostatic assay, L1210/0 cells. The format is cell-based, murine. As to conditions: for IC50: read-out: IC50 L1210/0.
Description: as §2

In series [11] the test system is HeLa. As to the kind of experiment: Cytostatic assay, HeLa cells. It counts as cell-based. As to conditions: for IC50: Table 6, read-out: IC50 HeLa; for CC50: Table 1, read-out: CC50 HeLa.
Description: as §2

The subject of series [12] is FM3A/TK^−. As to the kind of experiment: Cytostatic assay, FM3A/TK^− cells. It counts as cell-based. The settings on record: Mus musculus, read-out: CC50 FM3A/TK^−.
In series [13] the test system is FM3A/0. Description: Cytostatic assay, FM3A/0 cells. The format is cell-based. As to conditions: Mus musculus, FM3A/0, read-out: CC50 FM3A/0. The method, then:
The samples were assayed for biological activity versus a range of tumour cell lines with data recorded in Table 1 below. […] The cell lines employed were L1210/0 (a leukemia cell line), FM3A/0 (a breast cancer cell line), Cem/0 (an acute lymphoblastic leukemia cell line) and HeLa (a cervical cell line).

Series [14] in a line: Stability in human serum by in situ 31P NMR. The format is in vitro ADME. As to conditions: 37° C., after 13 h and 30 min. The method, then: The stability of the prodrug CPF-373 in the presence of human serum was studied using in situ ^31P NMR (202 MHz). The ProTide CPF-373 (1) (5.0 mg) was dissolved in DMSO (0.05 mL) and D2O (0.15 mL). Then the sample was transferred into an NMR tube, which was inserted in the NMR chamber at 37° C. (with enough solvent to obtain a control NMR reading of the blank). Then 0.3 ml human serum was quickly added to the sample in the NMR tube. NMR experiments were programmed to record data every 15 minutes for 12 hours and 30 minutes. Because of excess noise and poor shimming profiles (most likely due to the biological media and concentration), individual spectra were further processed. After normal Fourier transform processing, each spectrum was deconvoluted (Lorentz-Gauss deconvolution) to reveal solely the frequency and area of spectral peaks without the baseline. Data recorded were processed and analysed with the Bruker Topspin 2.1 program.
Chemical stability studies on the prodrug CPF-373 (1) have been performed by exposing the compound to human serum and to aqueous buffers (pH 1.0 and 8.0) using in situ ^31P NMR. […]
The stability of compound CPF 386 in the presence of human serum was investigated using in situ ^31P NMR. A control ^31P NMR data of compound CPF 386 in DMSO and D2O were recorded. […] The ^31P NMR data were recorded every 15 minutes over 14 h. […]

The target of series [15] is human UP (Homo sapiens, UniProt Q16831). Description: Phosphorolysis by human UP, HPLC. As to conditions: 100 μM compound, room temperature, 0-40 min. The method, then:
Reaction mixtures containing 100 μM test compound and recombinant TP or UP (human TP: 8.6 ng/μL; E. coli TP: 3.0 ng/μL; human UP: 4 ng/mL) in a total volume of 500 μL reaction buffer (10 mM TrisHCl; 300 μM NaCl; 1 mM EDTA; 2 mM KH2PO4/K2HPO4) were incubated at room temperature. At different time points (i.e. 0, 20, 40 min) 100 μL aliquots of the reaction mixtures were withdrawn and heated at 95° C. for 3 min to inactivate the enzyme. […] The separation of Urd from uracil was performed by a linear gradient from 100% separation buffer (see above) to 60% separation buffer+40% acetonitrile (3 min 100% separation buffer; 6 min linear gradient of 100% separation buffer to 60% separation buffer+40% acetonitrile; 6 min 60% separation buffer+40% acetonitrile, followed by equilibration at 100% separation buffer).

The mark [16] stands for this setting: Mus musculus, L1210, read-out: IC50 L1210.Hyor.
Setting [17] is: Mus musculus, L1210/0, Table 1, read-out: CC50 L1210/0.

Thymidine Phosphorylase purified from Escherichia coli, sequence (P07650 whole entry): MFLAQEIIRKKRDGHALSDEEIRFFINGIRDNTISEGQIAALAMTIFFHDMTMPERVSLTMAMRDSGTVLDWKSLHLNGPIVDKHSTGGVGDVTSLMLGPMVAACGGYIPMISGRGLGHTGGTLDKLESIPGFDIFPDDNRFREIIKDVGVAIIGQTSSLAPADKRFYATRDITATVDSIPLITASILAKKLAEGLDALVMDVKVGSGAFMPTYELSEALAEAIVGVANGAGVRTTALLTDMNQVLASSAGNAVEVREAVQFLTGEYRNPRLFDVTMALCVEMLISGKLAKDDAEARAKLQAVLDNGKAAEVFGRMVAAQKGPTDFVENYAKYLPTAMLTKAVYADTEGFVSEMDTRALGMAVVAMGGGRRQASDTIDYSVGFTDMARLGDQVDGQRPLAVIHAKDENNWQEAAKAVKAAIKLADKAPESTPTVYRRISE
human UP, sequence (Q16831 whole entry): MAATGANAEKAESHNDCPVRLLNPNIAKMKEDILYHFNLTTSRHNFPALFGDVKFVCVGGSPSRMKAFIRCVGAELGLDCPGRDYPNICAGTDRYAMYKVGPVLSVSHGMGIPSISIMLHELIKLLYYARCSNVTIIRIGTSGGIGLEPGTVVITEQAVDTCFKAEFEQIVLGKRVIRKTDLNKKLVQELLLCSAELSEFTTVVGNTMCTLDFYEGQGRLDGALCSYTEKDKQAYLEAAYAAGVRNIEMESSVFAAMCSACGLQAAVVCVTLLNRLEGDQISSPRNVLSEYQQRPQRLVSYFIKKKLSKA

For `C[C@H](NP(=O)(OC[C@H]1O[C@@H](n2cc(F)c(=O)[nH]c2=O)CC1O)Oc1ccccc1)C(=O)OCc1ccccc1` (stereo partly drawn) [CPF 381, 5-Fluoro-2′-deoxyuridine-5′-O-[phenyl(benzoxy-L-alaninyl)]phosphate], the “Stability towards hydrolysis at pH 1” value in series [1] is listed as “highly stable”. Besides, the IC50 in series [2] came to 13000 ± 8000 nM; in [3] (Table 8, read-out: IC50 Cem/hEnt-1), 130 ± 50 nM; in [3] (in the presence of NBMPR, read-out: IC50 Cem/hEnt-1 + NBMPR) it was 720 nM; in series [3] (in the presence of dipyridamole, read-out: IC50 Cem/hEnt-1 + dipyridamole) it was 660 nM; in series [4], 1400 ± 650 nM; in series [6], 22000 ± 7000 nM. Besides, the IC50 in series [7] came out at 180 ± 30 nM; in series [8] (read-out: IC50 L1210.Hyor, Table 7) it was 150 ± 6 nM; in series [9] it was 19000 ± 2000 nM; in series [10] (Table 6), 28 ± 7 nM; in [10] (Table 7), 26 ± 8 nM; in [11] it was 130 ± 10 nM. Further, in series [5], the “Phosphorolysis by thymidine phosphorylase (19F NMR)” value was “did not show any evidence of phosphorolysis”. Moreover, in series [8] (CC50 L1210 × 100 ÷ CC50 L1210/Hyor), the “% Retention” value turned out to be 18%. Further, the “IC50(L1210.Hyor)/IC50(L1210/0)” value in series [8] (Table 7) was determined as 5.8. Also, the CC50 in [8] (read-out: CC50 L1210/Hyor, Table 2, mycoplasma positive cells) amounted to 150 nM; in series [10] (Table 2, mycoplasma negative cells, read-out: CC50 L1210), 26 nM.

With `CCOC(=O)[C@H](C)NP(=O)(OC[C@H]1O[C@@H](n2cc(F)c(=O)[nH]c2=O)CC1O)Oc1ccccc1` (stereo partly drawn) [CPF 383], the CC50 in series [12] came out at 4100 ± 2000 nM; in [2] (Mus musculus), 940 ± 180 nM; in series [6] (Homo sapiens, CEM-TK(-)) it was 14000 nM; in [7] (Homo sapiens, CCRF-CEM), 920 ± 110 nM; in series [9] (Homo sapiens, HeLa), 9800 ± 1400 nM; in series [10] (setting [17]) it was 130 ± 40 nM. Besides, the CC50 in series [13] is 640 ± 570 nM; in series [11] (Homo sapiens, HeLa), 480 ± 190 nM. The IC50 turned out to be 940 ± 180 nM in [2] (Mus musculus, L1210); 14000 nM in [6] (Homo sapiens, CEM-TK(-)); 920 ± 110 nM in [7] (Homo sapiens, CCRF-CEM); 540 ± 120 nM in series [8] (setting [16]); 9800 ± 1400 nM in series [9] (Homo sapiens, HeLa); 130 ± 40 nM in series [10] (Mus musculus, L1210/0, Table 6). Besides, the IC50 stood at 110 ± 2.1 nM in series [10] (Mus musculus, L1210/0, Table 7) and 480 ± 190 nM in [11] (Homo sapiens, HeLa). Further, the “IC50(L1210.Hyor)/IC50(L1210/0)” value in series [8] (Table 7) came out at 5.

On to `CC(C)OC(=O)[C@H](C)NP(=O)(OC[C@H]1O[C@@H](n2cc(F)c(=O)[nH]c2=O)CC1O)Oc1ccccc1` (stereo partly drawn) [CPF 384, 5-Fluoro-2′deoxyuridine-5′-O-[phenyl(isopropoxy-L-alaninyl)] phosphate], for which the CC50 in [12] was found to be 13000 ± 1000 nM; in [2] (Mus musculus) it was 1100 ± 100 nM; in series [6] (Homo sapiens, CEM-TK(-)) it was 30000 ± 10000 nM; in [7] (Homo sapiens, CCRF-CEM) it was 1000 ± 100 nM; in series [9] (Homo sapiens, HeLa), 25000 ± 11000 nM; in [10] (setting [17]) it was 76 ± 22 nM. Besides, the CC50 in series [13] came out at 360 ± 250 nM; in series [11] (Homo sapiens, HeLa), 710 ± 150 nM. Moreover, the IC50 was found to be 1100 ± 100 nM in series [2] (Mus musculus, L1210); 30000 ± 10000 nM in series [6] (Homo sapiens, CEM-TK(-)); 1000 ± 100 nM in [7] (Homo sapiens, CCRF-CEM); 700 ± 100 nM in series [8] (setting [16]); 25000 ± 11000 nM in [9] (Homo sapiens, HeLa); 76 ± 22 nM in [10] (Mus musculus, L1210/0, Table 6). Further, the IC50 worked out at 50 ± 13 nM in [10] (Mus musculus, L1210/0, Table 7) and 710 ± 150 nM in series [11] (Homo sapiens, HeLa). In addition, the “IC50(L1210.Hyor)/IC50(L1210/0)” value in series [8] (Table 7) is 14.

On to `CCOC(=O)[C@H](C)NP(=O)(OC[C@H]1O[C@@H](n2cc(F)c(=O)[nH]c2=O)CC1O)Oc1cccc2ccccc12` (stereo partly drawn) [CPF 386, 5-Fluoro-2′deoxyuridine-5′-O-[1-naphthyl (ethoxy-L-alaninyl)] phosphate], for which the CC50 in series [2] (Mus musculus) turned out to be 360 ± 10 nM; in [6] (Homo sapiens, CEM-TK(-)) it was 1600 ± 200 nM; in series [7] (Homo sapiens, CCRF-CEM), 250 ± 40 nM; in series [9] (Homo sapiens, HeLa) it was 2800 nM; in series [10] (setting [17]), 31 ± 5 nM; in [11] (Homo sapiens, HeLa), 220 ± 40 nM. In addition, the IC50 came to 360 ± 10 nM in series [2] (Mus musculus, L1210); 1600 ± 200 nM in [6] (Homo sapiens, CEM-TK(-)); 250 ± 40 nM in series [7] (Homo sapiens, CCRF-CEM); 95 ± 2.8 nM in [8] (setting [16]); 2800 nM in [9] (Homo sapiens, HeLa); 31 ± 5 nM in [10] (Mus musculus, L1210/0, Table 6). Moreover, the IC50 in series [10] (Mus musculus, L1210/0, Table 7) turned out to be 28 ± 2.1 nM; in [11] (Homo sapiens, HeLa), 220 ± 40 nM. Besides, in [14], the “parent compound in reaction mixture with human serum” value worked out at 96%. Besides, the “IC50(L1210.Hyor)/IC50(L1210/0)” value in series [8] (Table 7) is reported as 3.4.

In the case of `O=c1ccn([C@@H]2O[C@H](CO)[C@@H](O)[C@H]2O)c(=O)[nH]1` [uridine, reference compound], the “Phosphorolysis by human UP” value in series [15] is “converted to uracil”.
